From PubChem BioAssay AID2060329 (Molecular Pharmacology Branch, DTP, NCI, 2025)
Several values for one entry are separate records, joined by “and”; a condition that tells them apart may be missing. Identical values can stand only once.

Tested on: MCF7 multi-cell spheroids with HUVEC/MSC, viability
Experiment: Anticancer human tumor MCF7 cell line growth inhibition [IpAb];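 also: spheroids exposed to agents for seven days before readout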
Conditions: for viability, T/C: stronger effect = lower value
Summary of the method: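 Combinations with ipatasertib or abemaciclib were tested on tumour spheroids holding HUVEC (25%) and MSC (15%) alongside 60% malignant cells. Top concentration was at or near clinical Cmax (10 microM if undefined), descending in half-log steps.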

[1] = curve of first compound, second compound 0.01 µM
[2] = curve of first compound, second compound 0.0316 µM
[3] = curve of first compound, second compound 0.1 µM
[4] = curve of first compound, second compound 0.316 µM
[5] = curve of first compound, second compound 1 µM
[6] = second compound 0.01 µM, first compound 0.0316 µM
[7] = second compound 0.01 µM, first compound 0.1 µM
[8] = second compound 0.01 µM, first compound 0.316 µM
[9] = second compound 0.01 µM, first compound 1 µM
[10] = second compound 0.01 µM, first compound 3.16 µM
[11] = second compound 0.01 µM, first compound 10 µM
[12] = second compound 0.0316 µM, first compound 0.0316 µM
[13] = second compound 0.0316 µM, first compound 0.1 µM
[14] = second compound 0.0316 µM, first compound 0.316 µM
[15] = second compound 0.0316 µM, first compound 1 µM
[16] = second compound 0.0316 µM, first compound 3.16 µM
[17] = second compound 0.0316 µM, first compound 10 µM
[18] = second compound 0.1 µM, first compound 0.0316 µM
[19] = second compound 0.1 µM, first compound 0.1 µM
[20] = second compound 0.1 µM, first compound 0.316 µM
[21] = second compound 0.1 µM, first compound 1 µM
[22] = second compound 0.1 µM, first compound 3.16 µM
[23] = second compound 0.1 µM, first compound 10 µM
[24] = second compound 0.316 µM, first compound 0.0316 µM
[25] = second compound 0.316 µM, first compound 0.1 µM
[26] = second compound 0.316 µM, first compound 0.316 µM
[27] = second compound 0.316 µM, first compound 1 µM
[28] = second compound 0.316 µM, first compound 3.16 µM
[29] = second compound 0.316 µM, first compound 10 µM
[30] = second compound 1 µM, first compound 0.0316 µM
[31] = second compound 1 µM, first compound 0.1 µM
[32] = second compound 1 µM, first compound 0.316 µM
[33] = second compound 1 µM, first compound 1 µM
[34] = second compound 1 µM, first compound 3.16 µM
[35] = second compound 1 µM, first compound 10 µM

Q: With `CC(C)NCC(C(=O)N1CCN(c2ncnc3c2C(C)CC3O)CC1)c1ccc(Cl)cc1` (centres undefined) as the compound, how does the viability, T/C (compound 0.1 µM) read?
A: Its viability, T/C is 86.9% [middle of 13 runs].

Q: And the viability, T/C (compound 0.316 µM)?
A: Its viability, T/C is 75.5% [middle of 13 runs].

Q: And the viability, T/C (compound 1 µM)?
A: The viability, T/C was 65.3% [middle of 13 runs].

Q: What about the viability, T/C (compound 3.16 µM) of the same compound?
A: The viability, T/C was 54.2% [middle of 13 runs].

Q: Which viability, T/C (compound 0.0316 µM) does the source give for `CCCS(=O)(=O)Nc1ccc(F)c(C(=O)c2c[nH]c3ncc(-c4ccc(Cl)cc4)cc23)c1F` here?
A: The viability, T/C was 102% and 98.6%.

Q: What about the viability, T/C (compound 0.1 µM) of the same compound?
A: The viability, T/C was 106% and 100%.

Q: And the viability, T/C (compound 0.316 µM)?
A: The viability, T/C was 102% and 96.2%.

Q: And the viability, T/C (compound 1 µM)?
A: Its viability, T/C is 104% and 97%.

Q: What about the viability, T/C (compound 3.16 µM) of the same compound?
A: Its viability, T/C is 99.4% and 93.1%.

Q: And the viability, T/C (compound 10 µM)?
A: Its viability, T/C is 105% and 97.9%.

Q: And the IC50 (curve of compound)?
A: Its IC50 is over 10 µM.

Q: `CC1(C)CCC(CN2CCN(c3ccc(C(=O)NS(=O)(=O)c4ccc(NCC5CCOCC5)c([N+](=O)[O-])c4)c(Oc4cnc5[nH]ccc5c4)c3)CC2)=C(c2ccc(Cl)cc2)C1` + CCN1CCN(Cc2ccc(Nc3ncc(F)c(-c4cc(F)c5nc(C)n(C(C)C)c5c4)n3)nc2)CC1 was tested. Which IC50 [1] did it give?
A: The IC50 was 7.02 µM.

Q: What about the IC50 [2] of the same compound?
A: Its IC50 is 7.01 µM.

Q: And the IC50 [3]?
A: Its IC50 is 6.63 µM.

Q: And the IC50 [4]?
A: Its IC50 is 6.29 µM.

Q: And the IC50 [5]?
A: Its IC50 is 5.39 µM.

Q: And the viability, T/C [6]?
A: Its viability, T/C is 107%.

Q: And the viability, T/C [7]?
A: Its viability, T/C is 93.2%.

Q: What about the viability, T/C [8] of the same compound?
A: The viability, T/C was 109%.

Q: And the viability, T/C [9]?
A: Its viability, T/C is 96.8%.

Q: What about the viability, T/C [10] of the same compound?
A: The viability, T/C was 111%.

Q: And the viability, T/C [11]?
A: Its viability, T/C is 26.4%.

Q: And the viability, T/C [12]?
A: The viability, T/C was 97.8%.

Q: What about the viability, T/C [13] of the same compound?
A: Its viability, T/C is 94.8%.

Q: What about the viability, T/C [14] of the same compound?
A: Its viability, T/C is 94.9%.

Q: And the viability, T/C [15]?
A: Its viability, T/C is 91.5%.

Q: And the viability, T/C [16]?
A: Its viability, T/C is 104%.

Q: What about the viability, T/C [17] of the same compound?
A: The viability, T/C was 29.2%.

Q: What about the viability, T/C [18] of the same compound?
A: Its viability, T/C is 107%.

Q: And the viability, T/C [19]?
A: The viability, T/C was 118%.

Q: What about the viability, T/C [20] of the same compound?
A: Its viability, T/C is 102%.

Q: And the viability, T/C [21]?
A: Its viability, T/C is 106%.

Q: What about the viability, T/C [22] of the same compound?
A: Its viability, T/C is 104%.

Q: What about the viability, T/C [23] of the same compound?
A: Its viability, T/C is 20.1%.

Q: And the viability, T/C [24]?
A: Its viability, T/C is 99.5%.

Q: And the viability, T/C [25]?
A: Its viability, T/C is 117%.

Q: What about the viability, T/C [26] of the same compound?
A: Its viability, T/C is 116%.

Q: And the viability, T/C [27]?
A: Its viability, T/C is 104%.

Q: And the viability, T/C [28]?
A: The viability, T/C was 98.6%.

Q: And the viability, T/C [29]?
A: Its viability, T/C is 17%.

Q: And the viability, T/C [30]?
A: Its viability, T/C is 105%.

Q: And the viability, T/C [31]?
A: The viability, T/C was 107%.

Q: What about the viability, T/C [32] of the same compound?
A: The viability, T/C was 101%.

Q: And the viability, T/C [33]?
A: The viability, T/C was 92.7%.

Q: And the viability, T/C [34]?
A: The viability, T/C was 87.7%.

Q: What about the viability, T/C [35] of the same compound?
A: The viability, T/C was 9.36%.

Q: What does the source list for `CCN1CCN(Cc2ccc(Nc3ncc(F)c(-c4cc(F)c5nc(C)n(C(C)C)c5c4)n3)nc2)CC1`?
A: viability, T/C (compound 0.01 µM): 97.5% [middle of 13 runs]; viability, T/C (compound 0.0316 µM): 101% [middle of 13 runs]; IC50 (compound alone, run of 06/01/2021): > 1 µM

Q: For `C=CCn1c(=O)c2cnc(Nc3ccc(N4CCN(C)CC4)cc3)nc2n1-c1cccc(C(C)(C)O)n1` + CCN1CCN(Cc2ccc(Nc3ncc(F)c(-c4cc(F)c5nc(C)n(C(C)C)c5c4)n3)nc2)CC1, which IC50 [1] is on record?
A: Its IC50 is 0.485 µM.

Q: And the IC50 [2]?
A: The IC50 was 0.561 µM.

Q: What about the IC50 [3] of the same compound?
A: The IC50 was 0.741 µM.

Q: And the IC50 [4]?
A: Its IC50 is 0.965 µM.

Q: What about the IC50 [5] of the same compound?
A: The IC50 was 0.85 µM.

Q: And the viability, T/C [6]?
A: The viability, T/C was 94.5%.

Q: What about the viability, T/C [7] of the same compound?
A: Its viability, T/C is 90.6%.

Q: And the viability, T/C [8]?
A: The viability, T/C was 60.1%.

Q: What about the viability, T/C [9] of the same compound?
A: The viability, T/C was 32.8%.

Q: And the viability, T/C [10]?
A: The viability, T/C was 25.6%.

Q: And the viability, T/C [11]?
A: Its viability, T/C is 25.6%.

Q: What about the viability, T/C [12] of the same compound?
A: Its viability, T/C is 91.4%.

Q: What about the viability, T/C [13] of the same compound?
A: Its viability, T/C is 87.7%.

Q: And the viability, T/C [14]?
A: Its viability, T/C is 63.4%.

Q: What about the viability, T/C [15] of the same compound?
A: Its viability, T/C is 36.3%.

Q: What about the viability, T/C [16] of the same compound?
A: Its viability, T/C is 25.7%.

Q: What about the viability, T/C [17] of the same compound?
A: The viability, T/C was 23.7%.

Q: What about the viability, T/C [18] of the same compound?
A: Its viability, T/C is 113%.

Q: What about the viability, T/C [19] of the same compound?
A: Its viability, T/C is 83.5%.

Q: And the viability, T/C [20]?
A: Its viability, T/C is 71%.

Q: What about the viability, T/C [21] of the same compound?
A: The viability, T/C was 42.6%.

Q: And the viability, T/C [22]?
A: Its viability, T/C is 29%.

Q: What about the viability, T/C [23] of the same compound?
A: Its viability, T/C is 36.7%.

Q: What about the viability, T/C [24] of the same compound?
A: Its viability, T/C is 109%.

Q: What about the viability, T/C [25] of the same compound?
A: Its viability, T/C is 109%.

Q: And the viability, T/C [26]?
A: Its viability, T/C is 88%.

Q: And the viability, T/C [27]?
A: Its viability, T/C is 49%.

Q: What about the viability, T/C [28] of the same compound?
A: The viability, T/C was 37.9%.

Q: And the viability, T/C [29]?
A: Its viability, T/C is 36.8%.

Q: And the viability, T/C [30]?
A: Its viability, T/C is 88%.

Q: And the viability, T/C [31]?
A: Its viability, T/C is 94%.

Q: And the viability, T/C [32]?
A: Its viability, T/C is 87.1%.

Q: What about the viability, T/C [33] of the same compound?
A: Its viability, T/C is 43.9%.

Q: And the viability, T/C [34]?
A: The viability, T/C was 41.6%.

Q: And the viability, T/C [35]?
A: The viability, T/C was 42.1%.
